This is an account of results in patent publication US20230073368A1, “THERAPY OF RAS-DEPENDENT CANCERS” (Turun Yliopisto, priority 2020, published 2023).

This experiment relates to PANC-1 cells. As to the kind of experiment: Proliferation assay of SHANK3 silenced PANC-1 cells treated with ERK and MEK inhibitors. The experiment is classed as cell-based, human. The conditions noted are these: dose-dependent, 7.8 nM-8 μM gradient. The procedure:
Proliferation Assay of SHANK3 Silenced PANC-1 Cells Treated with ERK and MEK Inhibitors
Cells were seeded on a 96-well plate (2000-5000 cells/well) a day before transfection and silenced the next day when cell confluence was approximately 30%. Next day after silencing, medium was changed to full medium containing DMSO (control), Trametinib, Selumetinib (ADZ6244) or selective ERK1/2 inhibitor (SCH772984) in dose-dependent manner (concentration gradient: 0, 7.8 nM, 15.5 nM 31.3 nM 62.5 nM, 125 nM, 250 nM, 500 nM, 1 μM, 2 μM, 4 μM and 8 μM). Proliferation was measured using IncuCyte S3 as described above.

The structures appear in SMILES notation.

For `O=C(Nc1ccc2[nH]nc(-c3ccncc3)c2c1)[C@@H]1CCN(CC(=O)N2CCN(c3ccc(-c4ncccn4)cc3)CC2)C1` [SCH772984], the “rescue of cell viability lost by SHANK3-silencing” value is given as “abolished a loss of cell viability induced by SHANK3-silencing”.
